Reference: patent US20250101104A1, “BISPECIFIC MOLECULE WITH TUNABLE AFFINITY TO A TARGETED ANTIGEN” (MABSWITCH INC., priority 2022, published 2025)

Legend:
[1] = tested on: CD3 positive Jurkat cells; test: Switch activity on living cells, flow cytometry; assay type: cell-based; conditions: incubated with the switch peptide variant SEQ ID NO:2
Method: The bispecific switchable anti-CD3/antiCD33 Fc fusion protein product MS42-13 is further tested for switch activity in the presence and absence of switch linkers on living cells using flow cytometry. For the cytofluorometry analysis, CD3 positive Jurkat cells (ATCC, Clone E6-1), cultivated in suspension culture as described by the provider, are seeded in FACS tubes and washed with 3 mL PBS supplemented with 2 mM EDTA and 2% (v/v) FCS (centrifugation for 5 min at 500×g and 4-C). Cells are incubated with […] of various dilutions of scFv-Fc bispecific antibody constructs (between 10 ng/mL and […]) for 1 h on ice. Cells are washed two times with 3 mL PBS (centrifugation for 5 min at 500×g and 4-C) and are incubated with 100 μL Fc-fusion of CD33 that carried an AviTag™ (biotinylated) (BPS Bioscience, Inc., San Diego, USA) (Fc-specific) for 1 h on ice in the dark in either the presence or absence of the switch peptides (1 μM or 10 μM). […] A minimum of 10^4 events are analyzed per sample. Analysis is performed with CXP analysis 2.2 software (Beckman Coulter, Fullerton, CA) and Mean Fluorescence Intensities (MFI) are determined using Flowjo™ software (Treestar).

[2] = target: T1, Human CD3 epsilon&CD3 gamma Heterodimer Protein (Homo sapiens, UniProt P07766); test: Bispecific functionality ELISA (captured CD3, detection with biotinylated CD33 Fc-fusion); assay type: binding; conditions: affinity to the CD3 antigen
T1 construct: purchased Biorbyt Ltd, Cambridge, United Kingdom
Method: Bispecific functionality is tested in an ELISA using soluble Human CD3 epsilon&CD3 gamma Heterodimer Protein (Biorbyt Ltd, Cambridge, United Kingdom) that is captured to the ELISA plate surface and an Fc-fusion of CD33 that carried an AviTag™ (biotinylated) (BPS Bioscience, Inc., San Diego, USA) detected by HRP conjugated streptavidin (BPS Bioscience, Inc., San Diego, USA). Dilution curves of the protein A purified bispecific scFv-Fc constructs are compared. For control, a bispecific scFv-Fc construct wherein the linker between the OKT3 variable heavy chain sequence to the OKT3 variable light chain sequence is a non-switchable variant (GGGGSGGGGSGG GGS (SEQ ID NO: 365)) is constructed, produced and purified as described above.

TF-1 AML cell lines = conditions: cited from earlier work
CD123+KG-1a = conditions: cited from earlier work
[3] = tested on: circulating CD123^+ cells; conditions: cited from earlier work
[4] = mice; cited from earlier work

T1 sequence (P07766 23-126 limits assumed): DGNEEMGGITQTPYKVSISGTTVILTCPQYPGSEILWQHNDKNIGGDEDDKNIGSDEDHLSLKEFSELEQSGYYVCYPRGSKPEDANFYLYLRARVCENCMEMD
T1 sequence (P09693 23-116 partner limits assumed): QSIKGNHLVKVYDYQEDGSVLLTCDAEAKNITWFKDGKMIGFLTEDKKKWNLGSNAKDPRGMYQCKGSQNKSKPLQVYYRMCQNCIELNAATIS

Substance	increase of half-maximal binding compared to the construct with the non-switchable linker (SEQ ID NO:365) [1] [fold]	drop in EC50 compared to the construct with the non-switchable wild type Gly-Ser linker [2] [fold]	EC50 of T cell-mediated killing (TF-1 AML cell lines) [ng/mL]	EC50 of T cell-mediated killing (CD123+KG-1a) [ng/mL]	T cell activation ([3]; cynomolgus monkeys)	depletion of circulating CD123+ cells including basophils and plasmacytoid dendritic cells ([3]; within 1 hour of administration)	serum half-life [4] [h]
MS42-13: switchable bispecific anti-CD3/anti-CD33 scFv-Fc fusion: OKT3 scFv with calmodulin switch linker, gemtuzumab scFv, knob-into-hole Fc (SEQ ID NO:366, 367)	≤ 21.3	24.6					
XmAb14045: Fc domain-containing bispecific antibody stimulating T cell-mediated killing of CD123+ cells			< 1	< 1	strongly activated T cells	over 99%	149
